Reference: patent publication US10052340B2 (XIAMEN UNIVERSITY, priority 2012, dated 2018)

Columns and labels:
[1] = test system: KK-Ay mice; assay: Mouse trial, KK-Ay diabetes and obesity model mice fed with high-fat diet; format: in vivo; details: for cholesterol in high density lipoprotein in serum / cholesterol in low density/very low density lipoprotein in serum / serum saccharides (glucose) level: 1.3 mg/kg i.p. daily, 14 days; for serum cholesterol / serum triglycerides: ivermectin/derivatives 1.3 mg/kg
Excerpt: In order to detect the efficacy of abamectin/avermectin, ivermectin and the derivative doramectin in the body of a diabetes and obesity mouse model, we choose diabetes and obesity mouse model mice, KK-Ay mice, as the experimental subject.

[2] = test system: wild-type C57BL/6J mice; assay: Mouse trial, wild-type mice fed with high-fat diet; details: high-fat diet, 1.3 mg/kg i.p. daily, 14 days
Protocol: (§1) Wild-type C57BL/6J mice of 9-10 weeks old, and FXR gene deletion homozygous mice (FXR^−/−) and diabetes and obesity mouse model mice (KK-Ay) with the same background are used, fed with high-fat diet (Research Diets, D12492), with free access to water, in SPF grade animal room in experimental animal center, Xiamen University. […] Intraperitoneal injection is performed one time at 9 o'clock every morning, continued for 14 days, and the mice are measured for body weight and the food intake every two days. At the end of 14 days, the mice are provided with free access to water, and after being hungry for 6 h, the mouse body weights are measured, and the percentage of the final body weight relative to the initial body weight before the treatment of the injection trial indicates the change of mouse body weight. Then blood is sampled from the eye balls, and sera are obtained by separation. The components in serum are detected by the following kits respectively: sugar-oxidase method (Beijing Applygen); insulin (Crystal Chem. Inc., USA); total cholesterol and cholesterol in high and low density lipoprotein (Bioassay Systems, USA); triglyceride (Beijing Applygen and WAKO Chemicals Inc., Japan); free fatty acids (Bioassay Systems, USA); and aspartate aminotransferase and alanine aminotransferase (Biosino Bio-technology and Science Inc., Beijing, China). Mouse liver is taken, a part of which is fixed with paraformaldehyde, and embedded with paraffin, sectioned, and stained with hematoxylin and eosin, and a part of which is cryopreserved with liquid nitrogen for use in extracting RNA for measuring gene expression with fluorescence quantitative PCR.

[3] = test system: FXR gene deletion homozygous mice (FXR−/−); assay: Mouse trial, FXR knockout mice fed with high-fat diet; format: in vivo; details: 1.3 mg/kg i.p. daily, 14 days
Protocol: as §1

[4] = i.p. daily 14 days, GW4064 30 mg/kg

Compound	cholesterol in high density lipoprotein in serum [1]	cholesterol in low density/very low density lipoprotein in serum [1]	serum saccharides (glucose) level [1]	serum cholesterol [1, 4]	serum triglycerides [1, 4]	cholesterol level in high density lipoprotein [2]	cholesterol levels in low density and very low density lipoprotein [2]	serum cholesterol level [2]	serum glucose level [2]	serum triglyceride (Tg) level [2]	serum cholesterol level [3]	serum glucose level [3]	serum free fatty acids ([1]; i.p. daily 14 days, ivermectin 1.3 mg/kg, GW4064 30 mg/kg)
CCC(C)[C@H]1O[C@]2(C=C[C@@H]1C)C[C@@H]1C[C@@H](C/C=C(\C)[C@@H](O[C@H]3C[C@H](OC)[C@@H](O[C@H]4C[C@@H](OC)[C@H](O)[C@@H](C)O4)[C@H](C)O3)[C@@H](C)/C=C/C=C3\CO[C@@H]4[C@H](O)C(C)=C[C@@H](C(=O)O1)[C@]34O)O2 (stereo partly shown) [abamectin/avermectin]	significantly decrease	significantly decrease	significantly decrease	decreased	significantly decrease	significantly downregulated	downregulated	significantly decreases	significantly decreases	significantly decrease	–	–	–
CO[C@H]1C[C@H](O[C@H]2[C@H](C)O[C@@H](O[C@@H]3/C(C)=C/C[C@@H]4C[C@@H](C[C@]5(C=C[C@H](C)[C@@H](C6CCCCC6)O5)O4)OC(=O)[C@@H]4C=C(C)[C@@H](O)[C@H]5OC/C(=C\C=C\[C@@H]3C)[C@]54O)C[C@@H]2OC)O[C@@H](C)[C@@H]1O [doramectin]	significantly decrease	significantly decrease	significantly decrease	decreased	significantly decrease	significantly downregulated	downregulated	significantly decreases	significantly decreases	significantly decrease	not producing any significant change	not producing any significant change	–
CC(C)c1onc(-c2c(Cl)cccc2Cl)c1COc1ccc(/C=C/c2cccc(C(=O)O)c2)c(Cl)c1 [GW4064]	–	–	–	significantly decrease	significantly decrease	–	–	–	–	–	–	–	significantly decrease
